Reference: ChEMBL document CHEMBL4138146, “A Schmidt rearrangement-mediated synthesis of novel tetrahydro-benzo[1,4]diazepin-5-ones as potential anticancer and antiprotozoal agents” (Eur J Med Chem, 2017)

How the values were obtained:
Assay type in all cases: functional
HT-29 = assay: Growth inhibition of human HT-29 cells assessed as cell growth at 10 uM incubated for 48 hrs by sulforhodamine B assay relative to control; details: HT-29, 48 h, read-out: Activity
SK-MEL-28 = assay: Growth inhibition of human SK-MEL-28 cells assessed as cell growth at 10 uM incubated for 48 hrs by sulforhodamine B assay relative to control; details: SK-MEL-28, 48 h, read-out: Activity
A498 = assay: Growth inhibition of human A498 cells assessed as cell growth at 10 uM incubated for 48 hrs by sulforhodamine B assay relative to control; details: A498, 48 h, read-out: Activity
UO-31 = assay: Growth inhibition of human UO31 cells assessed as cell growth at 10 uM incubated for 48 hrs by sulforhodamine B assay relative to control; details: UO-31, 48 h, read-out: Activity
RXF 393 = assay: Growth inhibition of human RXF393 cells assessed as cell growth at 10 uM incubated for 48 hrs by sulforhodamine B assay relative to control; details: RXF 393, 48 h, read-out: Activity
OVCAR-5 = assay: Growth inhibition of human OVCAR5 cells assessed as cell growth at 10 uM incubated for 48 hrs by sulforhodamine B assay relative to control; details: OVCAR-5, 48 h, read-out: Activity
SF-539 = assay: Growth inhibition of human SF539 cells assessed as cell growth at 10 uM incubated for 48 hrs by sulforhodamine B assay relative to control; details: SF-539, 48 h, read-out: Activity
HOP-92 = assay: Growth inhibition of human HOP92 cells assessed as cell growth at 10 uM incubated for 48 hrs by sulforhodamine B assay relative to control; details: HOP-92, 48 h, read-out: Activity
HOP-62 = assay: Growth inhibition of human HOP62 cells assessed as cell growth at 10 uM incubated for 48 hrs by sulforhodamine B assay relative to control; details: HOP-62, 48 h, read-out: Activity
MDA-MB-468 = assay: Growth inhibition of human MDA-MB-468 cells assessed as cell growth at 10 uM incubated for 48 hrs by sulforhodamine B assay relative to control; details: MDA-MB-468, 48 h, read-out: Activity
LOX IMVI = assay: Growth inhibition of human LOXIMVI cells assessed as cell growth at 10 uM incubated for 48 hrs by sulforhodamine B assay relative to control; details: read-out: Activity
NCI-H226 = assay: Growth inhibition of human NCI-H226 cells assessed as cell growth at 10 uM incubated for 48 hrs by sulforhodamine B assay relative to control; details: NCI-H226, 48 h, read-out: Activity
CAKI-1 = assay: Growth inhibition of human Caki1 cells assessed as cell growth at 10 uM incubated for 48 hrs by sulforhodamine B assay relative to control; details: CAKI-1, 48 h, read-out: Activity
SN12C = assay: Growth inhibition of human SN12C cells assessed as cell growth at 10 uM incubated for 48 hrs by sulforhodamine B assay relative to control; details: read-out: Activity
NCI-H322M = assay: Growth inhibition of human NCI-H322M cells assessed as cell growth at 10 uM incubated for 48 hrs by sulforhodamine B assay relative to control; details: read-out: Activity
CCRF-CEM = assay: Growth inhibition of human CCRF-CEM cells assessed as cell growth at 10 uM incubated for 48 hrs by sulforhodamine B assay relative to control; details: read-out: Activity
PC-3 = assay: Growth inhibition of human PC3 cells assessed as cell growth at 10 uM incubated for 48 hrs by sulforhodamine B assay relative to control; details: PC-3, 48 h, read-out: Activity
COLO 205 = assay: Growth inhibition of human COLO205 cells assessed as cell growth at 10 uM incubated for 48 hrs by sulforhodamine B assay relative to control; details: COLO 205, 48 h, read-out: Activity
A549 = assay: Growth inhibition of human A549/ATCC cells assessed as cell growth at 10 uM incubated for 48 hrs by sulforhodamine B assay relative to control; details: A549, 48 h, read-out: Activity
OVCAR-8 = assay: Growth inhibition of human OVCAR8 cells assessed as cell growth at 10 uM incubated for 48 hrs by sulforhodamine B assay relative to control; details: OVCAR-8, 48 h, read-out: Activity
SK-MEL-2 = assay: Growth inhibition of human SK-MEL-2 cells assessed as cell growth at 10 uM incubated for 48 hrs by sulforhodamine B assay relative to control; details: SK-MEL-2, 48 h, read-out: Activity
ACHN = assay: Growth inhibition of human ACHN cells assessed as cell growth at 10 uM incubated for 48 hrs by sulforhodamine B assay relative to control; details: read-out: Activity
SK-OV-3 = assay: Growth inhibition of human SKOV3 cells assessed as cell growth at 10 uM incubated for 48 hrs by sulforhodamine B assay relative to control; details: SK-OV-3, 48 h, read-out: Activity
TK-10 = assay: Growth inhibition of human TK10 cells assessed as cell growth at 10 uM incubated for 48 hrs by sulforhodamine B assay relative to control; details: TK-10, 48 h, read-out: Activity
NCI/ADR-RES = assay: Growth inhibition of human NCI/ADR-RES cells assessed as cell growth at 10 uM incubated for 48 hrs by sulforhodamine B assay relative to control; details: read-out: Activity
DU-145 = assay: Growth inhibition of human DU145 cells assessed as cell growth at 10 uM incubated for 48 hrs by sulforhodamine B assay relative to control; details: DU-145, 48 h, read-out: Activity
NCI-H522 = assay: Growth inhibition of human NCI-H522 cells assessed as cell growth at 10 uM incubated for 48 hrs by sulforhodamine B assay relative to control; details: NCI-H522, 48 h, read-out: Activity
Malme-3M = assay: Growth inhibition of human MALME-3M cells assessed as cell growth at 10 uM incubated for 48 hrs by sulforhodamine B assay relative to control; details: read-out: Activity
RPMI-8226 = assay: Growth inhibition of human RPMI8226 cells assessed as cell growth at 10 uM incubated for 48 hrs by sulforhodamine B assay relative to control; details: RPMI-8226, 48 h, read-out: Activity
NCI-H460 = assay: Growth inhibition of human NCI-H460 cells assessed as cell growth at 10 uM incubated for 48 hrs by sulforhodamine B assay relative to control; details: NCI-H460, 48 h, read-out: Activity
OVCAR-4 = assay: Growth inhibition of human OVCAR4 cells assessed as cell growth at 10 uM incubated for 48 hrs by sulforhodamine B assay relative to control; details: OVCAR-4, 48 h, read-out: Activity
BT-549 = assay: Growth inhibition of human BT549 cells assessed as cell growth at 10 uM incubated for 48 hrs by sulforhodamine B assay relative to control; details: BT-549, 48 h, read-out: Activity
SNB-75 = assay: Growth inhibition of human SNB75 cells assessed as cell growth at 10 uM incubated for 48 hrs by sulforhodamine B assay relative to control; details: SNB-75, 48 h, read-out: Activity

SMILES | growth at 10 µM (HT-29) [%] | growth at 10 µM (SK-MEL-28) [%] | growth at 10 µM (A498) [%] | growth at 10 µM (UO-31) [%] | growth at 10 µM (RXF 393) [%] | growth at 10 µM (OVCAR-5) [%] | growth at 10 µM (SF-539) [%] | growth at 10 µM (HOP-92) [%] | growth at 10 µM (HOP-62) [%] | growth at 10 µM (MDA-MB-468) [%] | growth at 10 µM (LOX IMVI) [%] | growth at 10 µM (NCI-H226) [%] | growth at 10 µM (CAKI-1) [%] | growth at 10 µM (SN12C) [%] | growth at 10 µM (NCI-H322M) [%] | growth at 10 µM (CCRF-CEM) [%] | growth at 10 µM (PC-3) [%] | growth at 10 µM (COLO 205) [%] | growth at 10 µM (A549) [%] | growth at 10 µM (OVCAR-8) [%] | further results
CCCCOc1nc2c(C)cccc2cc1C1CNC(=O)c2ccccc2N1 (configuration not stated) | 61.4 | 66.4 | 55.3 | 67.8 | 78.3 | 112 | 68.3 | 62.6 | 56.2 | 51.6 | 60.8 | 89 | 52.1 | 70.9 | 105 | 34.3 | 40.1 | 90.8 | 60 | 81.2 | growth at 10 µM (SK-MEL-2): 62.9%; growth at 10 µM (ACHN): 66.3%; growth at 10 µM (SK-OV-3): 69.2%; growth at 10 µM (TK-10): 98.7%; growth at 10 µM (NCI/ADR-RES): 51.3%; growth at 10 µM (DU-145): 86%; growth at 10 µM (NCI-H522): 44.8%; growth at 10 µM (Malme-3M): 86.1%; growth at 10 µM (RPMI-8226): 57.5%; growth at 10 µM (NCI-H460): 56.2%; growth at 10 µM (OVCAR-4): 71.7%; growth at 10 µM (BT-549): 74.5%; growth at 10 µM (SNB-75): 56.6%
O=C1CC(c2cc3ccccc3[nH]c2=O)Nc2ccccc21 (configuration not stated) | 99.5 | 110 | 79.4 | 95.2 | 99.7 | 106 | 99.4 | 108 | 100 | 96.5 | 98.2 | 96.5 | 95.2 | 93.3 | 102 | 106 | 104 | 115 | 95.5 | 108 | growth at 10 µM (SK-MEL-2): 98.3%; growth at 10 µM (ACHN): 99.9%; growth at 10 µM (SK-OV-3): 99.4%; growth at 10 µM (TK-10): 98%; growth at 10 µM (NCI/ADR-RES): 108%; growth at 10 µM (DU-145): 105%; growth at 10 µM (NCI-H522): 90.7%; growth at 10 µM (Malme-3M): 106%; growth at 10 µM (RPMI-8226): 107%; growth at 10 µM (NCI-H460): 105%; growth at 10 µM (OVCAR-4): 109%; growth at 10 µM (BT-549): 94.3%; growth at 10 µM (SNB-75): 90.4%
O=C1NCC(c2cc3ccc4ccccc4c3[nH]c2=O)Nc2ccccc21 (configuration not stated) | 95 | 104 | 88.6 | 105 | 101 | 101 | 99.8 | 99.5 | 93.1 | 116 | 90.6 | 103 | 85.7 | 79.3 | 111 | 81.5 | 88.8 | 108 | 82.4 | 78 | growth at 10 µM (SK-MEL-2): 92.2%; growth at 10 µM (ACHN): 109%; growth at 10 µM (SK-OV-3): 99.9%; growth at 10 µM (TK-10): 107%; growth at 10 µM (NCI/ADR-RES): 99%; growth at 10 µM (DU-145): 77.3%; growth at 10 µM (NCI-H522): 90.4%; growth at 10 µM (Malme-3M): 96.9%; growth at 10 µM (RPMI-8226): 109%; growth at 10 µM (NCI-H460): 82.3%; growth at 10 µM (OVCAR-4): 106%; growth at 10 µM (BT-549): 93.1%; growth at 10 µM (SNB-75): 107%
CCCCOc1nc2ccc(OC)cc2cc1C1CNC(=O)c2ccccc2N1 (configuration not stated) | 100 | 102 | 88.5 | 78.1 | 109 | 107 | 95.3 | 90.4 | 96 | 96.8 | 104 | 87.1 | 77.7 | 91.5 | 110 | 106 | 86.6 | 106 | 86.4 | 102 | growth at 10 µM (SK-MEL-2): 88.7%; growth at 10 µM (ACHN): 97.3%; growth at 10 µM (SK-OV-3): 89.3%; growth at 10 µM (TK-10): 97%; growth at 10 µM (NCI/ADR-RES): 109%; growth at 10 µM (DU-145): 108%; growth at 10 µM (NCI-H522): 77.4%; growth at 10 µM (Malme-3M): 123%; growth at 10 µM (RPMI-8226): 88.9%; growth at 10 µM (NCI-H460): 97.2%; growth at 10 µM (OVCAR-4): 99.3%; growth at 10 µM (BT-549): 98.1%; growth at 10 µM (SNB-75): 89.5%
